Test results reported in the NIST ThermoML archive (doi:10.1016/j.jct.2017.03.026).
“And” between values parts separate entries of the source, which are not always exact repeats. Equal values may be shown once. ± gives the expanded uncertainty stated by the source.

Test: molar heat capacity at constant pressure
Details: 101.33 kPa, Crystal, Small (less than 1 g) adiabatic calorimetry

O.O.O.O.O.O=S(=O)([O-])[O-].[Cu+2] [copper(II) sulfate pentahydrate]
Details | molar heat capacity at constant pressure
233.45 K | 239.84 ± 0.9 J/K/mol
234.05 K | 245.57 ± 1.2 J/K/mol
234.17 K | 240.04 ± 0.9 J/K/mol
234.4 K | 246.29 ± 1.2 J/K/mol
234.6 K | 245.97 ± 1.2 J/K/mol
234.74 K | 245.84 ± 1.2 J/K/mol
235.43 K | 246.76 ± 1.2 J/K/mol
235.54 K | 247.78 ± 1.2 J/K/mol
235.9 K | 247.43 ± 1.2 J/K/mol
236.03 K | 249.81 ± 1.2 J/K/mol
236.12 K | 248.09 ± 1.2 J/K/mol
236.33 K | 241.79 ± 0.9 J/K/mol
236.34 K | 242 ± 0.9 J/K/mol
236.67 K | 248.93 ± 1.2 J/K/mol
236.8 K | 248.39 ± 1.2 J/K/mol
237.18 K | 249.45 ± 1.2 J/K/mol
237.49 K | 248.39 ± 1.2 J/K/mol
237.8 K | 249.96 ± 1.2 J/K/mol
238.17 K | 249.66 ± 1.2 J/K/mol
238.48 K | 250.93 ± 1.2 J/K/mol
238.49 K | 242.57 ± 0.91 J/K/mol
238.86 K | 250.68 ± 1.2 J/K/mol
238.93 K | 250.66 ± 1.2 J/K/mol
239.22 K | 244.58 ± 0.91 J/K/mol
239.28 K | 253.63 ± 1.2 J/K/mol
239.54 K | 251.41 ± 1.2 J/K/mol
239.78 K | 251.78 ± 1.2 J/K/mol
240 K | 244.6 ± 0.9 J/K/mol
240.05 K | 252.46 ± 1.2 J/K/mol
240.22 K | 252.08 ± 1.2 J/K/mol
240.64 K | 245.25 ± 0.91 J/K/mol
240.9 K | 252.78 ± 1.2 J/K/mol
241.06 K | 253.96 ± 1.2 J/K/mol
241.18 K | 254.16 ± 1.2 J/K/mol
241.62 K | 254.68 ± 1.2 J/K/mol
242.1 K | 246.15 ± 0.92 J/K/mol
242.31 K | 255.3 ± 1.2 J/K/mol and 255.28 ± 1.2 J/K/mol
242.34 K | 255.3 ± 1.2 J/K/mol
242.5 K | 257.5 ± 1.2 J/K/mol
242.81 K | 246.88 ± 0.92 J/K/mol
243 K | 255.25 ± 1.2 J/K/mol
243.44 K | 256.35 ± 1.2 J/K/mol
243.63 K | 256.1 ± 1.2 J/K/mol
243.67 K | 255.75 ± 1.2 J/K/mol
244.35 K | 256.2 ± 1.2 J/K/mol
244.56 K | 257.83 ± 1.2 J/K/mol
244.9 K | 258.25 ± 1.2 J/K/mol
244.96 K | 248.55 ± 0.93 J/K/mol
244.99 K | 248.48 ± 0.92 J/K/mol
245.02 K | 258.05 ± 1.2 J/K/mol
245.68 K | 259.42 ± 1.2 J/K/mol
245.7 K | 261.47 ± 1.2 J/K/mol and 258.65 ± 1.2 J/K/mol
246.21 K | 260.25 ± 1.2 J/K/mol
246.37 K | 259.35 ± 1.2 J/K/mol
246.81 K | 261 ± 1.2 J/K/mol
247.04 K | 259.87 ± 1.2 J/K/mol
247.17 K | 250.06 ± 0.92 J/K/mol
247.49 K | 261.87 ± 1.2 J/K/mol
247.71 K | 260.55 ± 1.2 J/K/mol
247.81 K | 250.77 ± 0.93 J/K/mol
247.93 K | 262.47 ± 1.2 J/K/mol
248.38 K | 262.79 ± 1.2 J/K/mol
248.76 K | 263.79 ± 1.3 J/K/mol
248.87 K | 265.57 ± 1.3 J/K/mol
249.05 K | 263.94 ± 1.3 J/K/mol and 263.89 ± 1.3 J/K/mol
249.35 K | 251.83 ± 0.92 J/K/mol
249.73 K | 264.77 ± 1.3 J/K/mol
250 K | 252.3 ± 0.9 J/K/mol
250.03 K | 265.72 ± 1.3 J/K/mol
250.16 K | 265.92 ± 1.3 J/K/mol
250.4 K | 265.12 ± 1.3 J/K/mol
250.65 K | 253.29 ± 0.94 J/K/mol
250.81 K | 264.67 ± 1.3 J/K/mol
251.06 K | 267.06 ± 1.3 J/K/mol
251.11 K | 266.37 ± 1.3 J/K/mol
251.28 K | 267.34 ± 1.2 J/K/mol
251.4 K | 267.19 ± 1.2 J/K/mol
251.54 K | 253.61 ± 0.95 J/K/mol
251.7 K | 267.09 ± 1.2 J/K/mol
251.73 K | 268.24 ± 1.3 J/K/mol
252 K | 268.41 ± 1.3 J/K/mol
252.02 K | 268.79 ± 1.3 J/K/mol
252.3 K | 268.34 ± 1.3 J/K/mol
252.43 K | 268.74 ± 1.3 J/K/mol
252.44 K | 269.16 ± 1.3 J/K/mol
252.6 K | 268.74 ± 1.3 J/K/mol
252.91 K | 269.29 ± 1.3 J/K/mol
253.1 K | 269.76 ± 1.3 J/K/mol
253.21 K | 269.44 ± 1.3 J/K/mol
253.49 K | 254.99 ± 0.95 J/K/mol
253.51 K | 272.53 ± 1.3 J/K/mol
253.55 K | 268.86 ± 1.3 J/K/mol
253.73 K | 255.6 ± 0.95 J/K/mol
253.77 K | 270.41 ± 1.3 J/K/mol
253.82 K | 269.46 ± 1.3 J/K/mol
254.13 K | 270.51 ± 1.3 J/K/mol
254.44 K | 270.78 ± 1.3 J/K/mol
254.48 K | 271.06 ± 1.3 J/K/mol
254.67 K | 267.86 ± 1.3 J/K/mol
254.79 K | 270.11 ± 1.3 J/K/mol
255.09 K | 270.86 ± 1.3 J/K/mol
255.11 K | 269.99 ± 1.3 J/K/mol
255.15 K | 266.89 ± 1.2 J/K/mol
255.4 K | 268.06 ± 1.3 J/K/mol
255.71 K | 269.24 ± 1.3 J/K/mol
255.78 K | 268.39 ± 1.3 J/K/mol
255.79 K | 265.69 ± 1.2 J/K/mol
255.93 K | 257.4 ± 0.95 J/K/mol
256.02 K | 270.78 ± 1.3 J/K/mol
256.31 K | 256.81 ± 0.95 J/K/mol
256.34 K | 267.49 ± 1.2 J/K/mol
256.46 K | 267.76 ± 1.2 J/K/mol
256.65 K | 267.31 ± 1.2 J/K/mol
256.92 K | 265.79 ± 1.2 J/K/mol
256.96 K | 267.59 ± 1.2 J/K/mol
257.13 K | 266.91 ± 1.2 J/K/mol
257.27 K | 266.51 ± 1.2 J/K/mol
257.59 K | 266.84 ± 1.2 J/K/mol
257.81 K | 266.84 ± 1.2 J/K/mol
257.9 K | 267.19 ± 1.2 J/K/mol
258.04 K | 266.69 ± 1.2 J/K/mol
258.2 K | 258.77 ± 0.95 J/K/mol
258.23 K | 266.29 ± 1.2 J/K/mol
258.28 K | 269.36 ± 1.3 J/K/mol
258.49 K | 266.59 ± 1.2 J/K/mol
258.54 K | 266.91 ± 1.2 J/K/mol
258.86 K | 266.27 ± 1.2 J/K/mol
259.1 K | 259.75 ± 0.96 J/K/mol
259.16 K | 267.91 ± 1.3 J/K/mol and 267.81 ± 1.2 J/K/mol
259.17 K | 266.56 ± 1.2 J/K/mol
259.54 K | 267.76 ± 1.2 J/K/mol
259.84 K | 267.96 ± 1.3 J/K/mol
259.85 K | 268.01 ± 1.3 J/K/mol
260 K | 260.1 ± 1 J/K/mol
260.17 K | 268.06 ± 1.3 J/K/mol
260.28 K | 269.14 ± 1.3 J/K/mol
260.42 K | 260.6 ± 0.97 J/K/mol
260.48 K | 269.74 ± 1.3 J/K/mol
260.5 K | 268.36 ± 1.3 J/K/mol
260.81 K | 268.66 ± 1.3 J/K/mol
261.13 K | 268.81 ± 1.3 J/K/mol
261.17 K | 270.24 ± 1.3 J/K/mol
261.39 K | 272.21 ± 1.3 J/K/mol
261.41 K | 270.41 ± 1.3 J/K/mol
261.45 K | 269.31 ± 1.3 J/K/mol
261.76 K | 270.09 ± 1.3 J/K/mol
261.85 K | 271.36 ± 1.3 J/K/mol
261.91 K | 260.82 ± 0.96 J/K/mol
262.08 K | 270.58 ± 1.3 J/K/mol
262.39 K | 270.73 ± 1.3 J/K/mol
262.53 K | 272.18 ± 1.3 J/K/mol and 271.23 ± 1.3 J/K/mol
262.65 K | 262.42 ± 0.97 J/K/mol
262.71 K | 270.93 ± 1.3 J/K/mol
263.03 K | 271.38 ± 1.3 J/K/mol
263.24 K | 272.33 ± 1.3 J/K/mol
263.34 K | 272.38 ± 1.3 J/K/mol
263.65 K | 274.08 ± 1.3 J/K/mol
263.66 K | 273.13 ± 1.3 J/K/mol
